# Assay results from patent publication US20250214991A1 (Oncopia Therapeutics, Inc. d/b/a/ SK Life Science Labs, priority 2022, published 2025).
# What was measured:
# CRBN/DDB1 = CRBN/DDB1 (Homo sapiens (Human), UniProt Q96SW2); test: IC50 measurements for binding to CRBN/DDB1 (HTRF); conditions: His tagged CRBN+DDB, Cy5-labeled Thalidomide probe, one hour
# Procedure, shortened: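 HTRF competition binding with 2 nM His-tagged CRBN-DDB1 complex, 60 nM Cy5-thalidomide probe and 0.4 nM anti-His Tb cryptate in 50 mM HEPES pH 7.5, 1 mM TCEP, 0.01% Brij-35, 50 mM NaCl, 0.1% BSA. Read after 1 h at room temperature; IC50 from four-parameter dose-response fit.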
# IKZF2 [1] = target: T1, IKZF2 (Homo sapiens (Human), UniProt Q96SW2+Q9UKS7); test: In vitro IKZF2 FACS Assay in Jurkat cells; type: cell-based; conditions: 24 hrs; for DC50: half maximal degradation concentration; for Dmax: maximal degradation percentage
# Experimental: In vitro IKZF2 FACS Assay
# DC50, A: <1 nM; B: 1-10 nM; C: 10-100 nM; D: 100-1000 nM; E: >1000 nM. Dmax, A: >80%; B: 60-80%; C: 40-60%; D: 20-40%; E: <20%.
# IKZF2 [2] = target: T1, IKZF2; test: In vitro IKZF2 HiBit Assay (HEK293T Flp-in-HiBiT cells); type: cell-based; conditions: HEK293T Flp-in-HiBiT cells, 6 hrs incubation; for DC50: read-out: IKZF2 HiBit DC50; for Dmax: HEK-293T, read-out: IKZF2 HiBit Dmax (%)
# Procedure, shortened: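 HEK293T Flp-in cells carrying an endogenous N-terminal HiBiT tag on IKZF2 were exposed to compound for 6 h at 0.1% DMSO. The dilution series was 11 doses at 3-fold, diluted from 1 mM. Nano-Glo HiBiT lytic luminescence, normalized to DMSO, gave DC50 for 50% degradation and Dmax across the concentration range, both reported in letter bins.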
# IKZF1 = IKZF1 (Homo sapiens (Human), UniProt Q13422+Q96SW2); test: In vitro IKZF1 HiBit Assay (HEK293T Flp-in-HiBiT-IKZF1 stable cell line); type: cell-based; conditions: HEK293T Flp-in-HiBiT-IKZF1 stable cell line, 6 hrs incubation; for DC50: read-out: IKZF1 HiBit DC50; for Dmax: HEK-293T, read-out: IKZF1 HiBit Dmax (%)
# Procedure, shortened: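 HEK293T Flp-in cells carrying N-terminal HiBiT-tagged IKZF1 were exposed to compound (0.1% DMSO) for 6 h at 3000 cells/well. HiBiT luminescence was read after lytic LgBiT detection. DC50 and Dmax were taken from DMSO-normalized dose-response curves.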
# Chain of CRBN/DDB1 (Q96SW2 whole entry, species assumed): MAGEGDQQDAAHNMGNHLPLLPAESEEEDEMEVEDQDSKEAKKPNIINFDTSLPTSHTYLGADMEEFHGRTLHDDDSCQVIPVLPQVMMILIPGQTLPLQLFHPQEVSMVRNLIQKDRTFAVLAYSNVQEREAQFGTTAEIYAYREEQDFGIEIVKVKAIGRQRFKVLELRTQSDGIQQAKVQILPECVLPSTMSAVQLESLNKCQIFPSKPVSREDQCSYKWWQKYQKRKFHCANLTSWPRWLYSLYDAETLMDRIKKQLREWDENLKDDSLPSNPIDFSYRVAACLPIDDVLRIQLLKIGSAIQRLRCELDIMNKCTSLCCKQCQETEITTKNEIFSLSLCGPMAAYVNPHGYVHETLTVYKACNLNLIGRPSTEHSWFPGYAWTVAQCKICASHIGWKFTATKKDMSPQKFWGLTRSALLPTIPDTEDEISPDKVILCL
# Chain of CRBN/DDB1 (Q16531 whole entry partner, species assumed): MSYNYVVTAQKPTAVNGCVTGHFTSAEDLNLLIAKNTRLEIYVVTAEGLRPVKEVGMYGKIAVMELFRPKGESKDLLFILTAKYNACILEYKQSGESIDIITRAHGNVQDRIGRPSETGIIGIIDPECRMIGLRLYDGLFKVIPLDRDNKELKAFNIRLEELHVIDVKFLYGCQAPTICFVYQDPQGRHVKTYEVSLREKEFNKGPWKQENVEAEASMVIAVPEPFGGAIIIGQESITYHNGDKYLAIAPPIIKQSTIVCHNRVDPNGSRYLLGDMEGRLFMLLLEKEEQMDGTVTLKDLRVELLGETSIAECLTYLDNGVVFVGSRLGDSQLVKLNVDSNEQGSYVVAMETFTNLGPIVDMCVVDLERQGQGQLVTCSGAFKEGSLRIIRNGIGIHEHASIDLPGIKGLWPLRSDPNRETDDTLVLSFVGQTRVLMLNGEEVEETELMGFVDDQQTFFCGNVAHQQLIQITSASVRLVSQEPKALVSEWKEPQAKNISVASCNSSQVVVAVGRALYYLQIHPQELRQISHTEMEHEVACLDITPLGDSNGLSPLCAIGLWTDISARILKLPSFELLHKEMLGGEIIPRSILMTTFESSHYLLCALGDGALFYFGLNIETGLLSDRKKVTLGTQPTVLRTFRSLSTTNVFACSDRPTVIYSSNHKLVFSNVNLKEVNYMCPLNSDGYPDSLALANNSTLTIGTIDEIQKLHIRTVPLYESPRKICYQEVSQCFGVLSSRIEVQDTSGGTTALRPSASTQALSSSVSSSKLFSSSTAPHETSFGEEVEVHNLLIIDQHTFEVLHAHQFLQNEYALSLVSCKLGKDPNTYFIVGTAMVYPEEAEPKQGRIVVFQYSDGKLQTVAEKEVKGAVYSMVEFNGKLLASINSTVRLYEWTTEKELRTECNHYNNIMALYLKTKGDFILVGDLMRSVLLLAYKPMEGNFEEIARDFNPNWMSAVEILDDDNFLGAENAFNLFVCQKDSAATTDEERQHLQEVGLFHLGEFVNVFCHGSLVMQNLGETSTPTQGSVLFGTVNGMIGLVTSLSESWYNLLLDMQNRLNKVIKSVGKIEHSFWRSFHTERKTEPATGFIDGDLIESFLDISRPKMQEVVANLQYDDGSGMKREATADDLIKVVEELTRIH
# T1 sequence (Q9UKS7 whole entry): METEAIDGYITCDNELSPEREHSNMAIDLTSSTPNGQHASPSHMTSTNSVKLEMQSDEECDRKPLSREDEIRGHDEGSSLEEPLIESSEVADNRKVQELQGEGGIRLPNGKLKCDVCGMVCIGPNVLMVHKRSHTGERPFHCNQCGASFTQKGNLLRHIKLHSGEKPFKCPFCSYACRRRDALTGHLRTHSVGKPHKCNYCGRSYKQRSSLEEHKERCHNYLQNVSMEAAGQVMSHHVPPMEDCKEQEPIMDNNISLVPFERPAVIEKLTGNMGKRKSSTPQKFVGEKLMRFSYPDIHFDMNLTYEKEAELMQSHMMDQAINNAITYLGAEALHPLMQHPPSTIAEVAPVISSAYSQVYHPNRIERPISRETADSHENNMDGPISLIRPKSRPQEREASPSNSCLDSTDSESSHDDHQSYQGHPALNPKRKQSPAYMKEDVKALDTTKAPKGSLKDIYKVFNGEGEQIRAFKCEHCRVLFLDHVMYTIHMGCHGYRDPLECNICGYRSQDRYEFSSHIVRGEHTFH
# T1 sequence (Q96SW2 whole entry): as the sequence (Q96SW2 whole entry, species assumed) above
# T1 sequence (Q16531 2-1140 partner): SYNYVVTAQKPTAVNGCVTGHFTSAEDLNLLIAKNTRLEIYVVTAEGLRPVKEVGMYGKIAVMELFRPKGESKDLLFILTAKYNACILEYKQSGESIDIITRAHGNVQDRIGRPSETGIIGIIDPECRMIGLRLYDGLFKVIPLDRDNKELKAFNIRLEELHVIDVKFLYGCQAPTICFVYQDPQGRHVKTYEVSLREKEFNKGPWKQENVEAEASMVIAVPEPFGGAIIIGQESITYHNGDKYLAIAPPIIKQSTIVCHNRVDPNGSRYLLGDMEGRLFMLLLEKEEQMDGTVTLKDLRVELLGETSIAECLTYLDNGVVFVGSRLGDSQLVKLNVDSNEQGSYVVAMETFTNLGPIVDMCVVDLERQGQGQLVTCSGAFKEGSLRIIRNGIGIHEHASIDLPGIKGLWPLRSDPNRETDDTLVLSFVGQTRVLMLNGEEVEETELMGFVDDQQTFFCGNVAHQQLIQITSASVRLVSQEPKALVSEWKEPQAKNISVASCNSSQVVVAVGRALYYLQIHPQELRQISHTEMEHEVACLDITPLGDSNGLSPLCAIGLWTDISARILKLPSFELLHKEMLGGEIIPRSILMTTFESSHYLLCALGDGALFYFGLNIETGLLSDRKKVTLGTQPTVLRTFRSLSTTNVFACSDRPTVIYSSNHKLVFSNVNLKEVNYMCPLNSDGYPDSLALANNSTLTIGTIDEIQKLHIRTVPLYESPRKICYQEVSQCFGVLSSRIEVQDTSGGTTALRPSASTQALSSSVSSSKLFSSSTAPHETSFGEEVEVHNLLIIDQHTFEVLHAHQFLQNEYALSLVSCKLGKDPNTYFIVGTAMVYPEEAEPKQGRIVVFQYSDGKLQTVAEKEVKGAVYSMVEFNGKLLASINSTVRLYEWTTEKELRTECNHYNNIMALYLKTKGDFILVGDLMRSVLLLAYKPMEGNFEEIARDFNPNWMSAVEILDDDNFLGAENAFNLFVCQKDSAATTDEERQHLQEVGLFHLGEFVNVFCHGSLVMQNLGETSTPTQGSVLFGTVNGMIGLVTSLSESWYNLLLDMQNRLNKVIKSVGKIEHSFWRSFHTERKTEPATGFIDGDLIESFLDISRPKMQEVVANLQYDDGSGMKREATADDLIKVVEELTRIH
# Chain of IKZF1 (Q13422 whole entry): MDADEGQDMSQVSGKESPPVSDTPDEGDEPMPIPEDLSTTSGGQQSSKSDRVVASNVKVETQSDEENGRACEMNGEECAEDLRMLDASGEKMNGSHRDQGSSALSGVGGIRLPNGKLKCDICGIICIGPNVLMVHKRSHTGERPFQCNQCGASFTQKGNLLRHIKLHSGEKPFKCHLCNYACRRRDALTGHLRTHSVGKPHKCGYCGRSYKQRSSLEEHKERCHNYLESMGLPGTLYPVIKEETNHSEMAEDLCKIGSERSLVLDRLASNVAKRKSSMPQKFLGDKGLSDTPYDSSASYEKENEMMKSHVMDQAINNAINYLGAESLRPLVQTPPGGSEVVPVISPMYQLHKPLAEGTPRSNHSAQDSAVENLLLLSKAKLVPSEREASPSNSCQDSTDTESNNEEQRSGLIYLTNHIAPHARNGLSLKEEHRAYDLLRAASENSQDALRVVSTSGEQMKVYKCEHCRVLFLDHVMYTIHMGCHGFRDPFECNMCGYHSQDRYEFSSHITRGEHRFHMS
# Chain of IKZF1 (Q96SW2 whole entry): as the sequence (Q96SW2 whole entry, species assumed) above
# Chain of IKZF1 (Q16531 2-1140 partner): as the sequence (Q16531 2-1140 partner) above
Compound,IC50 (CRBN/DDB1) [nM],DC50 (IKZF2 [1]) [nM],Dmax (IKZF2 [1]) [%],DC50 (IKZF2 [2]) [nM],Dmax (IKZF2 [2]) [%],DC50 (IKZF1) [nM],Dmax (IKZF1) [%]
"O=C1CCC(N2Cc3cc(-c4cc(CN5CC6COCC6C5)c5ccn(C6COC6)c5n4)ccc3C2=O)C(=O)N1 (centres unmarked) [Example 186, 3-(5-(1-(oxetan-3-yl)-4-((tetrahydro-1H-furo[3,4-c]pyrrol-5 (3H)-yl)methyl)-1H-pyrrolo[2,3-b]pyridin-6-yl)-1-oxoisoindolin-2-yl) piperidine-2,6-dione]",100 to 500,1 to 10,> 80,1 to 10,> 80,> 10000,< 20
"O=C1CCC(N2Cc3cc(-c4cc(CN5CCC(F)CC5)c5ccn(C6COC6)c5n4)ccc3C2=O)C(=O)N1 (centres unmarked) [Example 187, 3-(5-(4-((4-fluoropiperidin-1-yl)methyl)-1-(oxetan-3-yl)-1H-pyrrolo[2,3-b]pyridin-6-yl)-1-oxoisoindolin-2-yl) piperidine-2,6-dione]",100 to 500,1 to 10,> 80,1 to 10,> 80,> 10000,< 20
"COC1CCN(Cc2cc(-c3ccc4c(c3)CN(C3CCC(=O)NC3=O)C4=O)nc3c2ccn3C2COC2)CC1 (centres unmarked) [Example 189, 3-(5-(4-((4-methoxypiperidin-1-yl)methyl)-1-(oxetan-3-yl)-1H-pyrrolo[2,3-b]pyridin-6-yl)-1-oxoisoindolin-2-yl) piperidine-2,6-dione]",100 to 500,1 to 10,> 80,1 to 10,> 80,10 to 100,20 to 40
"CC(C)Nc1n[nH]c2c(CN3CCCC3)cc(-c3ccc4c(c3)CN(C3CCC(=O)NC3=O)C4=O)nc12 (centres unmarked) [Example 193, 3-(5-(3-(isopropylamino)-7-(pyrrolidin-1-ylmethyl)-1H-pyrazolo[4,3-b]pyridin-5-yl)-1-oxoisoindolin-2-yl) piperidine-2,6-dione]",1000 to 5000,1 to 10,40 to 60,1 to 10,> 80,10 to 100,20 to 40
"Nc1n[nH]c2c(CN3CCC(O)CC3)cc(-c3ccc4c(c3)CN(C3CCC(=O)NC3=O)C4=O)nc12 (centres unmarked) [Example 205, 3-(5-(3-amino-7-((4-hydroxypiperidin-1-yl)methyl)-1H-pyrazolo[4,3-b]pyridin-5-yl)-1-oxoisoindolin-2-yl) piperidine-2,6-dione]",500 to 1000,100 to 1000,60 to 80,10 to 100,60 to 80,1000 to 10000,20 to 40
"O=C1CCC(N2Cc3cc(-c4cc(CN5CCCC5)c5ncn(C6CCC6)c5n4)ccc3C2=O)C(=O)N1 (centres unmarked) [Example 209, 3-(5-(3-cyclobutyl-7-(pyrrolidin-1-ylmethyl)-3H-imidazo[4,5-b]pyridin-5-yl)-1-oxoisoindolin-2-yl) piperidine-2,6-dione]",1000 to 5000,10 to 100,> 80,1 to 10,> 80,> 10000,< 20
"Nc1nn(C2CC2)c2c(CN3CCCC3)cc(-c3ccc4c(c3)CN(C3CCC(=O)NC3=O)C4=O)nc12 (centres unmarked) [Example 210, 3-(5-(3-amino-1-cyclopropyl-7-(pyrrolidin-1-ylmethyl)-1H-pyrazolo[4,3-b]pyridin-5-yl)-1-oxoisoindolin-2-yl) piperidine-2,6-dione]",500 to 1000,1 to 10,> 80,1 to 10,> 80,100 to 1000,40 to 60
"O=C1CCC(N2Cc3cc(-c4cc(CN5CCCC5)c5ncn(C6COC6)c5n4)ccc3C2=O)C(=O)N1 (centres unmarked) [Example 211, 3-(5-(3-(oxetan-3-yl)-7-(pyrrolidin-1-ylmethyl)-3H-imidazo[4,5-b]pyridin-5-yl)-1-oxoisoindolin-2-yl) piperidine-2,6-dione]",500 to 1000,10 to 100,60 to 80,10 to 100,60 to 80,> 10000,< 20
"Nc1n[nH]c2c(CN3CCC(F)CC3)cc(-c3ccc4c(c3)CN(C3CCC(=O)NC3=O)C4=O)nc12 (centres unmarked) [Example 212, 3-(5-(3-amino-7-((4-fluoropiperidin-1-yl)methyl)-1H-pyrazolo[4,3-b]pyridin-5-yl)-1-oxoisoindolin-2-yl) piperidine-2,6-dione]",< 100,10 to 100,> 80,1 to 10,60 to 80,1 to 10,20 to 40
"Nc1n[nH]c2c(CN3CC4COCC(C4)C3)cc(-c3ccc4c(c3)CN(C3CCC(=O)NC3=O)C4=O)nc12 (centres unmarked) [Example 215, 3-(5-(7-((3-oxa-7-azabicyclo[3.3.1]nonan-7-yl)methyl)-3-amino-1H-pyrazolo[4,3-b]pyridin-5-yl)-1-oxoisoindolin-2-yl) piperidine-2,6-dione]",100 to 500,10 to 100,> 80,10 to 100,> 80,100 to 1000,20 to 40
"Nc1n[nH]c2c(CN3CCC4(CC3)COC4)cc(-c3ccc4c(c3)CN(C3CCC(=O)NC3=O)C4=O)nc12 (centres unmarked) [Example 216, 3-(5-(7-((2-oxa-7-azaspiro[3.5]nonan-7-yl)methyl)-3-amino-1H-pyrazolo[4,3-b]pyridin-5-yl)-1-oxoisoindolin-2-yl) piperidine-2,6-dione]",1000 to 5000,100 to 1000,60 to 80,10 to 100,60 to 80,100 to 1000,20 to 40
"O=C1CCC(N2Cc3cc(-c4nc(CN5CCCC5)c5ccn(C6COC6)c5n4)ccc3C2=O)C(=O)N1 (centres unmarked) [Example 218, 3-(5-(7-(oxetan-3-yl)-4-(pyrrolidin-1-ylmethyl)-7H-pyrrolo[2,3-d]pyrimidin-2-yl)-1-oxoisoindolin-2-yl) piperidine-2,6-dione]",500 to 1000,10 to 100,60 to 80,1 to 10,60 to 80,100 to 1000,20 to 40
"O=C1CCC(N2Cc3cc(-c4nc5[nH]ccc5c(CN5CCCC5)c4Cl)ccc3C2=O)C(=O)N1 (centres unmarked) [Example 221, 3-(5-(5-chloro-4-(pyrrolidin-1-ylmethyl)-1H-pyrrolo[2,3-b]pyridin-6-yl)-1-oxoisoindolin-2-yl) piperidine-2,6-dione]",100 to 500,1 to 10,> 80,1 to 10,> 80,> 10000,< 20
"O=C1CCC(N2Cc3c(ccc(-c4cc(CN5CCCC5)c5ccn(C6CS(=O)(=O)C6)c5n4)c3F)C2=O)C(=O)N1 (centres unmarked) [Example 222, 3-(5-(1-(1,1-dioxidothietan-3-yl)-4-(pyrrolidin-1-ylmethyl)-1H-pyrrolo[2,3-b]pyridin-6-yl)-4-fluoro-1-oxoisoindolin-2-yl) piperidine-2,6-dione]",100 to 500,1 to 10,> 80,1 to 10,> 80,10 to 100,20 to 40
"O=C1CCC(N2Cc3c(ccc(-c4cc(CN5CCCC5)c5ccn(C6COC6)c5n4)c3F)C2=O)C(=O)N1 (centres unmarked) [Example 223, 3-(4-fluoro-5-(1-(oxetan-3-yl)-4-(pyrrolidin-1-ylmethyl)-1H-pyrrolo[2,3-b]pyridin-6-yl)-1-oxoisoindolin-2-yl) piperidine-2,6-dione]",100 to 500,1 to 10,> 80,< 1,60 to 80,1 to 10,20 to 40
"CC(C)Nc1n[nH]c2c(CN3CCCC3)cc(-c3ccc4c(c3F)CN(C3CCC(=O)NC3=O)C4=O)nc12 (centres unmarked) [Example 226, 3-(4-fluoro-5-(3-(isopropylamino)-7-(pyrrolidin-1-ylmethyl)-1H-pyrazolo[4,3-b]pyridin-5-yl)-1-oxoisoindolin-2-yl) piperidine-2,6-dione]",100 to 500,1 to 10,> 80,< 1,> 80,> 10000,< 20
"CC(C)Nc1n[nH]c2c(CN3CCCC3)cc(-c3ccc4c(c3Cl)CN(C3CCC(=O)NC3=O)C4=O)nc12 (centres unmarked) [Example 227, 3-(4-chloro-5-(3-(isopropylamino)-7-(pyrrolidin-1-ylmethyl)-1H-pyrazolo[4,3-b]pyridin-5-yl)-1-oxoisoindolin-2-yl) piperidine-2,6-dione]",500 to 1000,10 to 100,> 80,1 to 10,60 to 80,> 10000,< 20
